{
  "source": "paper PMC3914206",
  "key": {"[1]": {"target": "T1, panel of 442 kinases (Homo sapiens, UniProt P36888, N841I)", "T1 construct": "purchased KINOMEscan", "T1 sequence (P36888 27-993 N841I)": "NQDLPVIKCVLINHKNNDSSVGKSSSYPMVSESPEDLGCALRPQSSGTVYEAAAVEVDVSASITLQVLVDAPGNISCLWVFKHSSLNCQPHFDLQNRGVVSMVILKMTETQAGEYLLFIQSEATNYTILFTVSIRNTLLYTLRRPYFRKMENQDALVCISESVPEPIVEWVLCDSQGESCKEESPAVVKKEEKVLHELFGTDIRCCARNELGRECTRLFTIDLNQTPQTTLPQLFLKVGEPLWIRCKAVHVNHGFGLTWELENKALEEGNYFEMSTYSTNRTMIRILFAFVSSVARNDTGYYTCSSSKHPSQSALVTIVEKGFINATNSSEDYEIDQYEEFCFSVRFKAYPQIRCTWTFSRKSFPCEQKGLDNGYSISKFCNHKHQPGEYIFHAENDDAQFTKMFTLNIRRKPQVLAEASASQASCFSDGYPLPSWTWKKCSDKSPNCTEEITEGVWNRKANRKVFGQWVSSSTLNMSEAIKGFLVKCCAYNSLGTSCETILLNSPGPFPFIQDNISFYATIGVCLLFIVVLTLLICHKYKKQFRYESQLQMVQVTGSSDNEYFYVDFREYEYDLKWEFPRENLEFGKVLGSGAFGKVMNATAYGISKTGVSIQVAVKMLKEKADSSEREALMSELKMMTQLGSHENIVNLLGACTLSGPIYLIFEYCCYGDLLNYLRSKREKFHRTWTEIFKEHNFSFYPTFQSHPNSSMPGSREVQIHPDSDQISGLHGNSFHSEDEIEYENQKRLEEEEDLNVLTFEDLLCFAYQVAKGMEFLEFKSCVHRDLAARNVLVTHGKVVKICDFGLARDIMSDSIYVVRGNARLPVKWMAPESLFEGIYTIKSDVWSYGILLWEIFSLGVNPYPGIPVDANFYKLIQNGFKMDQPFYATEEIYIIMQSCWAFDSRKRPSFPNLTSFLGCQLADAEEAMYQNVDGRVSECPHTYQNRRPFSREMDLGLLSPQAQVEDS", "assay_type": "binding", "conditions": "Compound Concentration 10 µM", "source_text": "(§1) We assessed the selectivity of members of this scaffold using the KINOMEscan methodology across a near comprehensive panel of 442 kinases [[18,27]]."}, "[2]": {"target": "T2, panel of 442 kinases (Homo sapiens, UniProt P49841)", "T2 construct": "purchased KINOMEscan", "T2 sequence (P49841 whole entry)": "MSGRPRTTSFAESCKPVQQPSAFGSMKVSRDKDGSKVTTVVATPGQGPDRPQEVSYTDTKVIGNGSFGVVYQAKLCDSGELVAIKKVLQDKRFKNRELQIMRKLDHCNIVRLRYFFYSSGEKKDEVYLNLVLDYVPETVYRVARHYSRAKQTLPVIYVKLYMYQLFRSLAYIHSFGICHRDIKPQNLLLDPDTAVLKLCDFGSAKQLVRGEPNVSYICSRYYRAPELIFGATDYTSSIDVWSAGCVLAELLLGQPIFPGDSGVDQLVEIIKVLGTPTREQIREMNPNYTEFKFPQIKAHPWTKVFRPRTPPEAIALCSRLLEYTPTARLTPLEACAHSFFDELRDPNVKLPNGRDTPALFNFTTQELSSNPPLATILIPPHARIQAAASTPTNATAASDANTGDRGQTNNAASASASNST", "assay_type": "binding", "conditions": "Compound Concentration 10 µM", "source_text": "as §1"}},
  "data": [
    {"smiles": "COc1cc(C(=O)N2CCC(N3CCN(C)CC3)CC2)ccc1Nc1ncc2c(n1)N(C1CCCC1)c1ccccc1C(=O)N2C", "note": "[Compound 25, 11-cyclopentyl-2-((2-methoxy-4-(4-(4-methylpiperazin-1-yl)piperidine-1-carbonyl)phenyl)amino)-5-methyl-5H-benzo[e]pyrimido[5,4-b][1,4]diazepin-6(11H)-one]", "values": [
      {"measurement": "KINOMEscan: FLT3(N841I)", "setting": "[1]", "result": 90},
      {"measurement": "KINOMEscan: GSK3B", "setting": "[2]", "result": 80}
    ]},
    {"smiles": "CCOc1cc(C(=O)N2CCC(N3CCN(C)CC3)CC2)ccc1Nc1ncc2c(n1)N(C1CCCC1)c1ccccc1C(=O)N2C", "note": "[Compound 26]", "values": [
      {"measurement": "KINOMEscan: FLT3(N841I)", "setting": "[1]", "result": 100},
      {"measurement": "KINOMEscan: GSK3B", "setting": "[2]", "result": 98}
    ]},
    {"smiles": "COc1cc(C(=O)N2CCC(N3CCN(C)CC3)CC2)ccc1Nc1ncc2c(n1)N1CCc3cccc(c31)C(=O)N2C", "note": "[Compound 24]", "values": [
      {"measurement": "KINOMEscan: FLT3(N841I)", "setting": "[1]", "result": 55},
      {"measurement": "KINOMEscan: GSK3B", "setting": "[2]", "result": 72}
    ]},
    {"smiles": "COc1cc(C(=O)N2CCC(N3CCN(C)CC3)CC2)ccc1Nc1ncc2c(n1)N(C)c1ccccc1C(=O)N2C", "note": "[15 (LRRK2-IN-1)]", "values": [
      {"measurement": "KINOMEscan: FLT3(N841I)", "setting": "[1]", "result": 73},
      {"measurement": "KINOMEscan: GSK3B", "setting": "[2]", "result": 88}
    ]}
  ]
}
